Measurements: patent US7879868B2 (Novartis AG, priority 2002, dated 2011)
Read-outs that look alike come from different tables or passages of the source.

Columns and labels:
[1] = target: T1, BCRP (Homo sapiens, UniProt Q9UNQ0)
T1 sequence (Q9UNQ0 1-655): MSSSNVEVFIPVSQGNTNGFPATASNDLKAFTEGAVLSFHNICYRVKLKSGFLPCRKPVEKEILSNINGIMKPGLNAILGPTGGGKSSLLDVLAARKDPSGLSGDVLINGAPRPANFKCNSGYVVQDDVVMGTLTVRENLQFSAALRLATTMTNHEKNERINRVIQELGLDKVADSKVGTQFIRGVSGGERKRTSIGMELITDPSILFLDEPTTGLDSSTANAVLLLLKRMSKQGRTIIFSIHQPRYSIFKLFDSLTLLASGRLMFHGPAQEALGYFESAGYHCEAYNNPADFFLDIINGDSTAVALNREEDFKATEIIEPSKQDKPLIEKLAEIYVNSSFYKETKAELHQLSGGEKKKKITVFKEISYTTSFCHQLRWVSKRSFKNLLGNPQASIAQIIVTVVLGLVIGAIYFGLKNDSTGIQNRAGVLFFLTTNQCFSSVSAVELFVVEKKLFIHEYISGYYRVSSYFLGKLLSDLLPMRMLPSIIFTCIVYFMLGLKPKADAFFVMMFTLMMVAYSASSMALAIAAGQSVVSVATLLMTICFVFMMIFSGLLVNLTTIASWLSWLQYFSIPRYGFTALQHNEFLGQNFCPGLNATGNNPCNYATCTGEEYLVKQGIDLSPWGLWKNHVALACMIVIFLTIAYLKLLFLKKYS

[2] = Effect of imatinib on irinotecan pharmacokinetics in mice; details: for bioavailability: mouse, plasma, oral; for SN-38 plasma exposure: irinotecan 10 mg/kg oral
Excerpt: Ci: rate of clearance; Ka: absorption rate; F: calculated bioavailability (relative to intravenous dosing).

[3] = tested on: Saos2BCRPMUT#10 cells; assay: cells
[4] = tested on: Saos2BCRP#4 cells; assay: cells
[5] = tested on: Saos2pcDNA#3#2 cells; assay: Growth inhibition in vector control Saos2 cells; type: cell-based, human
[6] = read-out: concentration of SN-38 causing 50% growth inhibition (IC50), imatinib 0 μM
[7] = read-out: concentration of SN-38 causing 50% growth inhibition (IC50), imatinib 0.1 μM
[8] = read-out: concentration of SN-38 causing 50% growth inhibition (IC50), imatinib 0.3 μM
[9] = read-out: concentration of SN-38 causing 50% growth inhibition (IC50), imatinib 1.0 μM
[10] = read-out: concentration of SN-38 causing 50% growth inhibition (IC50), imatinib 3.0 μM
[11] = Homo sapiens, SAOS-2, read-out: concentration of topotecan causing 50% growth inhibition, in presence of 1 μM imatinib
[12] = Homo sapiens, SAOS-2, read-out: concentration of topotecan causing 50% growth inhibition, in presence of 3 μM imatinib
[13] = Homo sapiens, SAOS-2, read-out: concentration of topotecan causing 50% growth inhibition, in presence of 5 μM imatinib
[14] = Homo sapiens, SAOS-2, read-out: concentration of topotecan causing 50% growth inhibition, topotecan alone

For `Cc1ccc(NC(=O)c2ccc(CN3CCN(C)CC3)cc2)cc1Nc1nccc(-c2cccnc2)n1` [imatinib], the “reversal of BCRP-mediated resistance to topotecan (summary of Table 1)” value [1] was “complete reversal of BCRP-mediated resistance to topotecan” and the “effect of imatinib on oral bioavailability of irinotecan” value ([2]; mice, imatinib 50 mg/kg oral + irinotecan 10 mg/kg oral) was “enhances oral bioavailability of irinotecan”.

`CCc1c2c(nc3ccc(OC(=O)N4CCC(N5CCCCC5)CC4)cc13)-c1cc3c(c(=O)n1C2)COC(=O)[C@]3(O)CC` [IRN] gave a bioavailability [2] of 23 ± 2% and a bioavailability ([2]; 10 mg/kg) of 9 ± 2%.

`CCc1c2c(nc3ccc(O)cc13)-c1cc3c(c(=O)n1C2)COC(=O)[C@]3(O)CC` [SN-38, 7-ethyl-10-hydroxycamptothecin] showed an IC50 [3, 6] of 1.7 nM, an IC50 [3, 7] of 1.7 nM and an IC50 [3, 8] of 1.6 nM. It also gave an IC50 [3, 9] of 1.7 nM, an IC50 [3, 10] of 1.6 nM and an IC50 [4, 6] of over 100 nM. It also gave an IC50 [4, 7] of 82 nM, an IC50 [4, 8] of 29 nM and an IC50 [4, 9] of 14 nM. The IC50 [4, 10] was 7 nM, the SN-38 plasma exposure ([2]; mice, with imatinib 50 mg/kg oral) was 775 ng/h/mL and the SN-38 plasma exposure ([2]; mice, without imatinib) was 263 ng/h/mL. It also gave an IC50 [5, 6] of 2.9 nM, an IC50 [5, 7] of 2.7 nM and an IC50 [5, 8] of 2.7 nM. It also gave an IC50 [5, 9] of 3.3 nM and an IC50 [5, 10] of 3.7 nM.

For `CC[C@@]1(O)C(=O)OCc2c1cc1n(c2=O)Cc2cc3c(CN(C)C)c(O)ccc3nc2-1` [topotecan], the IC50 ([3]; Homo sapiens, SAOS-2, read-out: IC50 concentration of topotecan, Saos2Mut#10 cells) was 9 nM, the IC50 [3, 11] was 18 nM and the IC50 [3, 12] was 9.9 nM. It also gave an IC50 [3, 13] of 15 nM, an IC50 [3, 14] of 9 nM and an IC50 ([4]; Homo sapiens, SAOS-2, read-out: IC50 concentration of topotecan, Saos2BCRP#4 cells) of 167 nM. For the same compound, the IC50 [4, 11] was 35 nM, the IC50 [4, 12] was 24 nM and the IC50 [4, 13] was 22 nM. For the same compound, the IC50 [4, 14] was 254 nM, the IC50 ([5]; Homo sapiens, SAOS-2, Saos2pcDNA cells, read-out: IC50 concentration of topotecan) was 16 nM and the IC50 ([5]; Homo sapiens, SAOS-2, in presence of 1 μM imatinib, read-out: concentration of topotecan causing 50% growth inhibition) was 23 nM. The IC50 ([5]; Homo sapiens, SAOS-2, in presence of 3 μM imatinib, read-out: concentration of topotecan causing 50% growth inhibition) was 20 nM, the IC50 ([5]; Homo sapiens, SAOS-2, in presence of 5 μM imatinib, read-out: concentration of topotecan causing 50% growth inhibition) was 23 nM and the IC50 ([5]; Homo sapiens, SAOS-2, topotecan alone, read-out: concentration of topotecan causing 50% growth inhibition) was 20 nM.
